What all share (type): biochemical, uncultured bacterium
Experiment [1] has as its system SN243. As to the kind of experiment: absorbance at […] nm, initial rates, Michaelis-Menten fit. As to conditions: 100 mM Tris pH 8.0, 150 mM NaCl, 25 °C.
The test system of experiment [2] is SN243. As to the kind of experiment: product inhibition of pNP-β-GlcA hydrolysis. As to conditions: 10 μM pNP-β-GlcA; 100 mM Tris pH 8.0, 150 mM NaCl, 25 °C.
For experiment [3], the system named is SN243. Description: fluorescence, initial rates, Michaelis-Menten fit. To be noted: 100 mM Tris pH 8.0, 150 mM NaCl, 25 °C.

As for `O=C(O)[C@H]1O[C@@H](Oc2ccc([N+](=O)[O-])cc2)[C@H](O)[C@@H](O)[C@@H]1O` [pNP-β-GlcA], in the experiment on SN243 [1], the Km (in general, the concentration of substrate that gives half-maximal velocity) came to 0.0137 mM.
As to `O=C(O)[C@H]1OC(O)[C@H](O)[C@@H](O)[C@@H]1O` (some centres unmarked) [GlcA], half-maximal inhibition in the experiment on SN243 [2] (IC50) required 179 µM.
With `O=C1OC2(c3ccc(O[C@@H]4O[C@H](C(=O)O)[C@@H](O)[C@H](O)[C@H]4O)cc3Oc3cc(O[C@@H]4O[C@H](C(=O)O)[C@@H](O)[C@H](O)[C@H]4O)ccc32)c2ccccc21` [FD-β-GlcA], in the experiment on SN243 [3], the Km came to 0.008 mM.
For `O=[N+]([O-])c1ccc(O[C@@H]2O[C@H](CO)[C@@H](O)[C@H](O)[C@H]2O)cc1` [pNP-β-Glc], in the experiment on SN243 [1], the Km is 56.5 ± 4.1 mM.
Regarding `O=[N+]([O-])c1ccc(O[C@@H]2OC[C@@H](O)[C@H](O)[C@H]2O)cc1` [pNP-β-Xyl], the Km with SN243 [1] came out at 23 ± 0.9 mM.

(Values after paper doi:10.1101/2022.04.25.489410v1 (biorxiv, 2022).)
